Test results as given in patent US6559140B2 (Abbott Laboratories, priority 2000, dated 2003).

Biological target: H3 receptor (Rattus norvegicus, UniProt Q9QYN8)
Assay: H3 receptor binding, (3H)-N-α-methylhistamine displacement in rat cortical membranes
Conditions: male Sprague-Dawley rat brain cortical membranes, 30 minutes at 25° C., Cheng-Prusoff, geometric mean values of 2-10 separate experiments
Experimental: Briefly, male Sprague-Dawley rat brain cortices were homogenized (1 g tissue/10 mL buffer) in 50 mM Tris-HCl/5 mM EDTA containing protease inhibitor cocktail (Calbiochem) using a polytron set at 20,500 rpm. Homogenates were centrifuged for 20 minutes at 40,000×g. The supernatant was decanted, and pellets were weighed. The pellet was resuspended by polytron homogenization in 40 mL 50 mM Tris-HCl/5 mM EDTA with protease inhibitors and centrifuged for 20 minutes at 40,000×g. […] Test compounds were added to the incubation mixtures prior to initiating the incubation assay by addition of the membranes. Thioperamide (3 μM) was used to determine nonspecific binding. Binding incubations were conducted for 30 minutes at 25° C. and terminated by addition of 2 mL of ice cold 50 mM Tris-HCl (H 7.7) and filtration through 0.3% polyethylenimine-soaked Unifilter plates (Packard). These filters were washed 4 additional times with 2 mL of ice-cold 50 mM Tris-HCl and dried for 1 hour. Radioactivity was determined using liquid scintillation counting techniques. Results were analyzed by Hill transformation and Ki values were determined using the Cheng-Prusoff equation.

Chain of H3 receptor (Q9QYN8 1-397 isoform Q9QYN8-3): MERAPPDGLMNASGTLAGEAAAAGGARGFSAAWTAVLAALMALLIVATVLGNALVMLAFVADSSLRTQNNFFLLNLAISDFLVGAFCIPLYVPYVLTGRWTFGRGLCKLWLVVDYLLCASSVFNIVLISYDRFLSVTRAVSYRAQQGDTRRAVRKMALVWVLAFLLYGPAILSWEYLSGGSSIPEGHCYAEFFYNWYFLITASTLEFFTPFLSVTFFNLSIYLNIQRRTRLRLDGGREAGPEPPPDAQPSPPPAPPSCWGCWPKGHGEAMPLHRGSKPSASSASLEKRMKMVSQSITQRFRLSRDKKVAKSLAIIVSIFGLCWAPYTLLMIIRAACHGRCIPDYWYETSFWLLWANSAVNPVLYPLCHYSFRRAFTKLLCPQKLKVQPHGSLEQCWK

C[C@@H](NC(=O)c1ccc(Cl)c(Cl)c1)C(=O)N1CCN(CCCOc2ccc(-c3noc(CC4CCCC4)n3)c(F)c2)CC1 [Example 176, 3,4-dichloro-N-{(1R)-2-[4-(3-{4-[5-(cyclopentylmethyl)-1,2,4-oxadiazol-3-yl]-3-fluorophenoxy}propyl)-1-piperazinyl]-1-methyl-2-oxoethyl}benzamide]
Ki: 1.22 nM

CC(C)C(=O)N[C@H](C)C(=O)N1CCCN(CCCOc2ccc(-c3noc(CC4CCCC4)n3)c(F)c2)CC1 [Example 177, N-{(1R)-2-[4-(3-{4-[5-(cyclopentylmethyl)-1,2,4-oxadiazol-3-yl]-3-fluorophenoxy}propyl)-1,4-diazepan-1-yl]-1-methyl-2-oxoethyl}-2-methylpropanamide]
Ki: 1.78 nM

C[C@@H](NC(=O)c1ccc(Cl)cc1)C(=O)N1CCCN(CCCOc2ccc(-c3noc(CC4CCCC4)n3)c(F)c2)CC1 [Example 178, 4-chloro-N-{(1R)-2-[4-(3-{4-[5-(cyclopentylmethyl)-1,2,4-oxadiazol-3-yl]-3-fluorophenoxy}propyl)-1,4-diazepan-1-yl]-1-methyl-2-oxoethyl}benzamide]
Ki: 8.2 nM

C[C@@H](NC(=O)c1ccc(C#N)cc1)C(=O)N1CCCN(CCCOc2ccc(-c3noc(CC4CCCC4)n3)c(F)c2)CC1 [Example 179, 4′-cyano-N-{(1R)-2-[4-(3-{4-[5-(cyclopentylmethyl)-1,2,4-oxadiazol-3-yl]-3-fluorophenoxy}propyl)-1,4-diazepan-1-yl]-1-methyl-2-oxoethyl}benzamide]
Ki: 1.5 nM

C[C@@H](NC(=O)c1ccc(N(C)C)cc1)C(=O)N1CCN(CCCOc2ccc(-c3noc(CC4CCCC4)n3)c(F)c2)CC1 [Example 180, N-{(1R)-2-[4-(3-{4-[5-(cyclopentylmethyl)-1,2,4-oxadiazol-3-yl]-3-fluorophenoxy}propyl)-1-piperazinyl]-1-methyl-2-oxoethyl}-4-(dimethylamino)benzamide]
Ki: 2.37 nM

C[C@@H](NC(=O)c1cccnc1)C(=O)N1CCN(CCCOc2ccc(-c3noc(CC4CCCC4)n3)c(F)c2)CC1 [Example 181, N-{(1R)-2-[4-(3-{4-[5-(cyclopentylmethyl)-1,2,4-oxadiazol-3-yl]-3-fluorophenoxy}propyl)-1-piperazinyl]-1-methyl-2-oxoethyl}nicotinamide]
Ki: 1.67 nM

C[C@@H](NC(=O)c1ccccc1Cl)C(=O)N1CCN(CCCOc2ccc(-c3noc(CC4CCCC4)n3)c(F)c2)CC1 [Example 182, 2-chloro-N-{(1R)-2-[4-(3-{4-[5-(cyclopentylmethyl)-1,2,4-oxadiazol-3-yl]-3-fluorophenoxy}propyl)-1-piperazinyl]-1-methyl-2-oxoethyl}benzamide]
Ki: 2.78 nM

C[C@@H](NC(=O)c1ccc2c(c1)OCO2)C(=O)N1CCN(CCCOc2ccc(-c3noc(CC4CCCC4)n3)c(F)c2)CC1 [Example 183]
Ki: 2.72 nM

CC(C)Oc1ccc(C(=O)N[C@H](C)C(=O)N2CCN(CCCOc3ccc(-c4noc(CC5CCCC5)n4)c(F)c3)CC2)cc1 [Example 184, N-{(1R)-2-[4-(3-{4-[5-(cyclopentylmethyl)-1,2,4-oxadiazol-3-yl]-3-fluorophenoxy}propyl)-1-piperazinyl]-1-methyl-2-oxoethyl}-4-isopropoxybenzamide]
Ki: 10.5 nM

COc1ccc(C(=O)N[C@H](C)C(=O)N2CCN(CCCOc3ccc(-c4noc(CC5CCCC5)n4)c(F)c3)CC2)cc1F [Example 185, N-{(1R)-2-[4-(3-{4-[5-(cyclopentylmethyl)-1,2,4-oxadiazol-3-yl]-3-fluorophenoxy}propyl)-1-piperazinyl]-1-methyl-2-oxoethyl}-3-fluoro-4-methoxybenzamide]
Ki: 3.28 nM

C[C@@H](NC(=O)c1ccc(C(=O)O)cc1)C(=O)N1CCN(CCCOc2ccc(-c3noc(CC4CCCC4)n3)c(F)c2)CC1 [Example 186, 4-[({(1R)-2-[4-(3-{4-[5-(cyclopentylmethyl)-1,2,4-oxadiazol-3-yl]-3-fluorophenoxy}propyl)-1-piperazinyl]-1-methyl-2-oxoethyl}amino)carbonyl]benzoic acid]
Ki: 8.82 nM

Cc1cccc(-c2nc(-c3ccc(OCCCN4CCN(C(=O)[C@@H](C)NC(=O)c5cccs5)CC4)cc3F)no2)c1 [Example 187, N-{(1R)-2-[4-(3-{3-fluoro-4-[5-(3-methylphenyl)-1,2,4-oxadiazol-3-yl]phenoxy}propyl)-1-piperazinyl]-1-methyl-2-oxoethyl}-2-thiophenecarboxamide]
Ki: 26.2 nM

C[C@@H](NC(=O)c1cccs1)C(=O)N1CCN(CCCOc2ccc(-c3noc(-c4cccc(C#N)c4)n3)c(F)c2)CC1 [Example 188, N-{(1R)-2-[4-(3-{4-[5-(3-cyanophenyl)-1,2,4-oxadiazol-3-yl]-3-fluorophenoxy}propyl)-1-piperazinyl]-1-methyl-2-oxoethyl}-2-thiophenecarboxamide]
Ki: 4.23 nM

C[C@@H](NC(=O)c1cccs1)C(=O)N1CCN(CCCOc2ccc(-c3noc(-c4cc(Cl)cc(Cl)c4)n3)c(F)c2)CC1 [Example 189, N-{(1R)-2-[4-(3-{4-[5-(3,5-dichlorophenyl)-1,2,4-oxadiazol-3-yl]-3-fluorophenoxy}propyl)-1-piperazinyl]-1-methyl-2-oxoethyl}-2-thiophenecarboxamide]
Ki: 51.3 nM

C[C@@H](NC(=O)c1cccs1)C(=O)N1CCN(CCCOc2ccc(-c3noc(CCC(=O)N4CCCC4)n3)c(F)c2)CC1 [Example 190, N-((1R)-2-{4-[3-(3-fluoro-4-{5-[3-oxo-3-(1-pyrrolidinyl)propyl]-1,2,4-oxadiazol-3-yl}phenoxy)propyl]-1-piperazinyl}-1-methyl-2-oxoethyl)-2-thiophenecarboxamide]
Ki: 7.69 nM

CCOC(=O)c1nc(-c2ccc(OCCCN3CCN(C(=O)[C@@H](C)NC(=O)c4cccs4)CC3)cc2F)no1 [Example 191, Ethyl 3-{2-fluoro-4-[3-(4-{(2R)-2-[(2-thienylcarbonyl)amino]propanoyl}-1-piperazinyl)propoxy]phenyl}-1,2,4-oxadiazole-5-carboxylate]
Ki: 15 nM

Cc1ccccc1C(=O)N[C@H](C)C(=O)N1CCN(CCCOc2ccc(C(=O)C3CC3)cc2)CC1 [Example 192, N-[(1R)-2-(4-{3-[4-(cyclopropylcarbonyl)phenoxy]propyl}-1-piperazinyl)-1-methyl-2-oxoethyl]-2-methylbenzamide]
Ki: 1 nM

COc1cccc(C(=O)N[C@H](C)C(=O)N2CCN(CCCOc3ccc(C(=O)C4CC4)cc3)CC2)c1 [Example 193, N-[(1R)-2-(4-{3-[4-(cyclopropylcarbonyl)phenoxy]propyl}-1-piperazinyl)-1-methyl-2-oxoethyl]-3-methoxybenzamide]
Ki: 1.11 nM

C[C@@H](NC(=O)c1ccc(Br)cc1)C(=O)N1CCN(CCCOc2ccc(C(=O)C3CC3)cc2)CC1 [Example 194, 4-bromo-N-[(1R)-2-(4-{3-[4-(cyclopropylcarbonyl)phenoxy]propyl}-1-piperazinyl)-1-methyl-2-oxoethyl]benzamide]
Ki: 1.18 nM

C[C@@H](NC(=O)c1ccc(Oc2ccccc2)cc1)C(=O)N1CCN(CCCOc2ccc(C(=O)C3CC3)cc2)CC1 [Example 195]
Ki: 1.37 nM

Cc1cc(C)cc(C(=O)N[C@H](C)C(=O)N2CCN(CCCOc3ccc(C(=O)C4CC4)cc3)CC2)c1 [Example 196, N-[(1R)-2-(4-{3-[4-(cyclopropylcarbonyl)phenoxy]propyl}-1-piperazinyl)-1-methyl-2-oxoethyl]-3,5-dimethylbenzamide]
Ki: 2.08 nM

COc1ccc(OC)c(C(=O)N[C@H](C)C(=O)N2CCN(CCCOc3ccc(C(=O)C4CC4)cc3)CC2)c1 [Example 197, N-[(1R)-2-(4-{3-[4-(cyclopropylcarbonyl)phenoxy]propyl}-1-piperazinyl)-1-methyl-2-oxoethyl]-2,5-dimethoxybenzamide]
Ki: 3.1 nM

COc1ccc(-c2nc(-c3ccc(OCCCN4CCN(C(=O)[C@@H](C)NC(=O)c5cccs5)CC4)cc3F)no2)cc1 [Example 198, N-{(1R)-2-[4-(3-{3-fluoro-4-[5-(4-methoxyphenyl)-1,2,4-oxadiazol-3-yl]phenoxy}propyl)-1-piperazinyl]-1-methyl-2-oxoethyl}-2-thiophenecarboxamide]
Ki: 25.9 nM

Tert-butyl (1R)-1-benzyl-2-(4-(3-(4-(cyclopropylcarbonyl)phenoxy)propyl)-1-piperazinyl)-2-oxoethylcarbamate [Example 79]
Ki: 4.78 nM
